Patent publication US10112978B2, “Peptide and use thereof” (OSAKA UNIVERSITY, priority 2014, dated 2018)
Ends that are not written are not given here.

What was measured:
THP-1 cells = assay: CD86 and CD54 expression in THP-1 cells (flow cytometry, RFI); assay type: cell-based, human; settings: overnight culture, relative fluorescence intensity
Experimental: THP-1 cells were seeded at a density of 2.0×10^5 cells/mL in 50 mL of RPMI1640 medium containing 10% FBS and 0.05 mM mercaptoethanol in a 75-cm^2 flask, and precultured for 48 hours.
The precultured THP-1 cells were harvested by centrifugation and suspended at 2.0×10^6 cells/mL in RPMI1640 medium containing 10% FBS and 0.05 mM mercaptoethanol, and the cell suspension was added to a 24-well plate at 500 μL/well. Test peptides were separately dissolved in the same medium as above, and 500 μL of each of the solutions was added to separate wells containing the cell suspension.
After overnight culture, the cells were harvested by centrifugation and washed twice with PBS containing 0.1% BSA (FACS buffer). The cells were then dispersed in 600 μL of FACS buffer containing 0.01% human γ-globulin solution (Sigma, G2388), and incubated at 4° C. for 10 minutes for blocking of Fc receptors.
After that, the cell suspension was divided into three 180-μL aliquots in 1.5-mL tubes, the tubes were centrifuged, and the cell pellets were prepared for the reaction with antibodies. To the cell pellets, FITC-labeled antibody solutions separately diluted to appropriate concentrations in FACS buffer were added in a volume of 50 μL, and incubation was performed at 4° C. for 30 minutes. The antibodies used were CD86 antibody (Pharmingen; Cat#555657), CD54 antibody (Dako; Cat# F7143) and isotype control (Mouse IgG) antibody (Dako; Cat#X0927). After the 30-minute incubation, the cells were harvested by centrifugation and washed twice with FACS buffer. The cells harvested by centrifugation were dispersed in 200 μL of FACS buffer containing 0.625 μg/mL propidium iodide, and the expression levels of the cell surface antigens on 1×10^4 viable cells were measured by flow cytometry. Forward and side scatter gating was not used for the analysis, and the relative fluorescence intensity (RFI) was calculated from the measured mean fluorescence intensities (MFI) by the following formula. […]
When the viability of the non-treated control cells (vehicle treatment cells) was 90% or more, the test was considered valid. In the case where the cell viability at a particular sample concentration used in the test was lower than 50%, the data of the CD54 level at the concentration was excluded from the evaluation.

[1] = test system: Human hair follicle dermal papilla cells; assay: Production of growth factors (KGF, HGF, VEGF) by hair follicle dermal papilla cells (ELISA); assay type: cell-based; settings: 5 days
Experimental: Human hair follicle dermal papilla cells in DMEM medium containing 10% FBS were seeded at 3×10^4 cells/well on a 24-well plate and cultured in a CO2 incubator overnight. On the following day, the medium was removed, test peptide solutions in DMEM medium containing 1% FBS were added to the plate, and the cells were cultured in a CO2 incubator for 5 days. The culture supernatant was harvested, and the KGF, HGF and VEGF concentrations in the culture supernatant were measured by ELISA.
In this experiment, OSK-1 and AAP-11 were used as the test peptides, and the concentrations of KGF, HGF and VEGF were measured in the same manner as in Example 9.

## FLHRLKRLRKRL [AAP-11]
THP-1 cells
  expression of CD54: no considerable reduction in the activity was observed
  expression of CD86: no considerable reduction in the activity was observed
[1]
  production of the growth factors (KGF, HGF and VEGF concentrations in the culture supernatant): promoted the production of the indicated growth factors in a concentration dependent manner

## MLKLIFLHRLKRMRKRLdKRK (MLKLIFLHRLKRMRKRLKRK; not fully specified (residues 17, 18)) [SR-07, reference compound]
THP-1 cells
  expression of CD54: OSK-1 was more highly active for inducing CD54 expression than SR-07 and SR-08

## ELKLIFLHRLKRLR [AAP-3, C-terminal KRLKRK of OSK-1 deleted]
THP-1 cells
  expression of CD54: considerably less active
  expression of CD86: considerably less active
[1]
  production of the growth factors (KGF, HGF and VEGF concentrations in the culture supernatant): less effective than OSK-1

## LKLIFLHRLKRMRKRLdKRK (LKLIFLHRLKRMRKRLKRK; not fully specified (residues 16, 17)) [SR-08, reference compound]
THP-1 cells
  expression of CD54: OSK-1 was more highly active for inducing CD54 expression than SR-07 and SR-08

## HRLKRLRKRLKRK [AAP-12, seven N-terminal amino acids of OSK-1 deleted]
THP-1 cells
  expression of CD54: considerably less active than OSK-1
  expression of CD86: considerably less active than OSK-1

## LIFLHRLKRLRKRL [AAP-6]
THP-1 cells
  expression of CD54: no considerable reduction in the activity was observed
  expression of CD86: no considerable reduction in the activity was observed

## ELKLIFLHRLKRLRKR [AAP-2, C-terminal LKRK of OSK-1 deleted]
THP-1 cells
  expression of CD54: considerably less active
  expression of CD86: considerably less active
[1]
  production of the growth factors (KGF, HGF and VEGF concentrations in the culture supernatant): less effective than OSK-1
